In brackets after ≈: the same amount, converted by molar mass. Like-named read-outs stand apart in the source and are kept apart here.
Key:
E. coli (BL21 DE3) = assay: Minimal inhibitory concentration (MIC), broth microdilution, E. coli; assay type: cell-based; details: for MIC: Escherichia coli, read-out: MIC E. coli
Procedure: (§1) The minimal inhibitory concentration (MIC) and minimal bactericidal concentration (MBC) by broth microdilution assays in 96-well plates to determine antimicrobial activity of selected agents against Gram-positive and Gram-negative bacteria
(§2) Antimicrobial materials: In a typical experiment, the synthesized polymers were prepared for antimicrobial assays as described for the kinetic assays in Example 4(A), except as indicated in Tables 7-10 and 12.
(§3) Mueller Hinton broth (MHB): A sterile broth is prepared with 4.50 g Mueller Hinton base (Hardy Diagnostics) in 200 mL deionized water. The broth is cooled to room temperature after being autoclaved and stored at 4° C. until use.
(§4) Propagation of bacterial cells: Typically, 500 μL aliquots of S. aureus (ATCC® 25923™) or E. coli (BL21 DE3) cells are used to inoculate 5 mL of Mueller Hinton broth. The inoculum is shaken at 37° C. and 240 rpm for 6 h. Then, 500 μL aliquots are transferred to individual vessels, flash-frozen in liquid nitrogen, and stored as pre-starter cultures at −20° C. until use.
(§5) Growth of bacterial cells: A 500 μL pre-starter culture is used to inoculate 5 mL of Mueller Hinton broth at 37° C. After 5 h of shaking at 240 rpm, a 500 μL of the inoculum is diluted to 20 mL with sterile MHB, followed by three successive 1:10 dilutions of 1000 μL of the resulting solutions into 10 mL MHB. Subsequently, 50 μL of the most dilute cell suspension is spread on a Mueller-Hinton agar plate, and incubated at 37° C. After 24 h, selected colonies are re-suspended in 4 mL of Mueller-Hinton broth and diluted until their OD625 value matched that of a 0.5 McFarland standard at 37° C. to account for a cell concentration of 1×10^8 CFU/mL. Typically, a 50 μL aliquot of the cell suspension is diluted into 10 mL of Mueller-Hinton broth to obtain a stock solution of S. aureus cells at a concentration of 5×10^5 CFU/mL. Typically, two separate inoculums are prepared immediately prior to use.
(§6) Preparation of broth microdilution assays and data recording: Following standard procedures for conducting broth microdilution assays, 100 μL aliquots of Mueller-Hinton broth are added to each well. Subsequently, a 100 μL aliquot of the sterile antimicrobial agent solution is added in the first column of the plate and then diluted in a serial manner by subsequent transfers of 100 μL aliquots over the first 10 columns. […] Typically, the absorbance in each well is then monitored at 595 nm and 37° C. over a 16 h period in 2 h intervals.
(§7) Data analysis: The obtained absorbance data are plotted against time to determine the steady state point of cell growth. The change of absorbance at this time for wells with and without antimicrobial agent is then plotted against the concentration of the antimicrobial agent. […]

S. aureus (ATCC 25923) = assay: Minimal inhibitory concentration (MIC), broth microdilution, S. aureus; assay type: cell-based; details: for MIC: Staphylococcus aureus
Procedure: as §1, §2, §3, §4, §5, §6, §7

[1] = Stability of galactonoamidine against hydrolysis under buffer and temperature conditions (HPLC, NMR); assay type: physicochemical
Procedure: The instrumentation, reagents, and materials for this study were recently described. [Sharma, B. et al. Biomacromolecules 2018, 19, 1164-1174; Sharma, B. et al. […]. 2018, 8, 7710-7718] The computational analysis was performed with PQSmol as reported. [Sharma Biomacromolecules 2018; […]. et al. Dalton Trans. 2016, 45, 15203-15210; Becke, A. D. J. Chem. Phys. 1993, 98, 5648-5652; Lee, C. et al. Phys. Rev. B: Condens. Matter Mater. Phys. 1988, 37, 785-789; PQSmol, Version 4.1; Parallel Quantum Solutions: […]. et al. J. Chem. […] [[…]. et al. Bioorg. Med. Chem. 2016, 24, 3371-3377] Glyconoamidines are prone to nucleophilic attack at the anomeric C atom and subsequent hydrolysis in alkaline solution. Various glyconoamidines have been previously synthesized. [Bleriot, Y. et al. Bioorg. Med. Chem. Lett. 1995, 5, 2655-60; Bleriot, Y. et al. Tetrahedron Lett. 1994, 35, 1867-70; Heck, M.-P. et al. J. Am. Chem. Soc. 2004, 126, 1971-1979; […]. Res. 1996, 29, 340-347] We evaluated the hydrolysis of galactonoamidine 1 under various buffer and temperature conditions to ensure its stability under polymerization conditions. […] The stability of 1 was also observed at 0 and 10° C. over a 3 h time period in 5 mM CAPS buffer solution at pH 10.50. Buffer solutions with similar molarity at lower pH values behave likewise (FIG. 13).

[2] = Coordination to binuclear complex Cu2bpdpo, isothermal titration calorimetry; assay type: binding; details: coordination to the metal complex; pH 10.50, 10° C.
Text: The coordination of galactonoamidine 1 to binuclear complexes was already evaluated in part and included Cu2bpdpo (5), a nonpolymerizable analogue of 3 (FIG. 15).

B21 DE3 E. coli cells = assay: Growth of E. coli cells in petridish assays with Müller-Hinton/agar media; assay type: cell-based; details: 37° C., 12 h
Procedure: Sterile Müller-Hinton/Agar (MH) media. 4.54 g Müller-Hinton media and 5.07 g agar were dissolved in 200 mL deionized water. The media were autoclaved and stored at 4° C. until use.
E. coli cell culture. A 100 μL aliquot of B21 DE3 E. coli cells, purchased from New England Biolabs, were added to 1 mL of sterile Luria-Bertani broth; the culture was incubated for 2 hours at 37° C. Then, a 100 μL aliquot of this culture was diluted by serial dilution 200,000-fold with sterile LB (Miller's) media yielding 10 mL of a stock solution of the cell culture.
Stock solution of low molecular weight complex Cu2bpdpo (catalyst 1). 5.28 mg of Cu2bpdpo were dissolved in 5 mL of 50 mM HEPES buffer at pH 7.00; a 1000 μl aliquot of the resulting solution was further diluted into 10 mL yielding a 160.3 μM stock solution of Cu2bpdpo.
Stock solution of Hen Egg-white lysozyme (catalyst 2). 11.53 mg of lyophilized lysozyme purchased from AMRESCO were dissolved in 5 mL of 50 mM HEPES buffer at pH 7.00 and used as a 161.1 μM stock solution.
Stock solutions of microgels (catalysts 3-5). All microgel stock solutions were treated as described above, but only diluted 1:5 during activation and then sterilized prior to use for these experiments. The stock solution for ^Cu2LPgal (40%) is 112.3 μM, for ^Cu2LPgal (60%) 145.6 μM and for ^Cu2LP1 (60%) 153.6 μM.
Plate preparation. […]

[3] = assay type: biochemical; details: for Km / kcat: substrate β-9
Procedure: 2.8.4. Catalytic Glycoside Hydrolysis. […]
Substrate Stock Solution. […] As the glycoside precipitates in this concentration from aqueous solutions at ambient temperature, the resulting solution was kept above 50° C. until use.
Catalyst Stock Solutions. The microgel dispersions were used as described above. […]
Kinetic Assay. In a typical experiment, 20 μL of an activated microgel dispersion were added to aliquots of the glycoside stock solution (0-100 μL) and corresponding amounts of buffer solution, keeping the nominal volume of the resulting solutions at 200 μL. […] The product formation was read in 20 min intervals after orbital shaking of the solutions over 5 s each. All experiments were performed in duplicate or triplicate.
Data Analysis. The collected fluorescence intensity was plotted over time, and a linear fit applied to the data collected between 140 and 480 min. The calculated rates of the reaction were then corrected by the corresponding apparent extinction coefficient and catalyst amount, averaged from two independent experiments, and plotted over the molar substrate concentration. Nonlinear regression of the resulting hyperbolic data yielded the rate constant kcat and the apparent substrate affinity KM. The rate constant of the uncatalyzed reaction knon was determined by applying a linear fit to the corrected rates of the collected data obtained in absence of catalyst. Data obtained in the presence of metal-ion free control polymer ^LPgal and from control polymer ^Cu2LPEG were treated likewise to estimate their catalytic efficiency.
The turbidity of the aqueous microgel dispersions under consideration here increases visibly to the naked eye with the crosslinking content from 5 to 80 mol % EGDMA. As a consequence, the apparent extinction coefficient (εapp) was determined for each microgel under the respective assay conditions prior to analysis of related spectroscopic data. […] (FIG. 9). [Chen, R. F Anal. Lett. 1968, 1(7), 423-428] […] [Striegler 2010] and used here to establish catalytic activity of the newly synthesized crosslinked microgels. The assay was developed in a 96-well plate format to allow fast catalyst screening under various reaction conditions, including lower pH values in future efforts.
Likewise, a linear correlation between the concentration of the low molecular weight complex Cu2bpdpo (2) and the product formation of the glycoside hydrolysis was observed when the catalyst was used in concentrations up to 12 μM under assay conditions. With a fast screening assay on hand, the hydrolysis of glycoside 6 was evaluated with two different microgel catalysts at 60% crosslinking content: a polymer […] prepared in the presence of galactose and its metal-free, nonactivated analogue ^LPgal. Control experiments were conducted using a microgel ^Cu2LPEG that has the same crosslinking content as those polymers above, but is prepared in the presence of ethylene glycol instead of galactose. Additionally, hydrolysis of 6 was followed in the presence of low molecular weight complex Cu2bpdpo (2) and in the absence of catalyst in the buffer solution itself. The resulting hyperbolic data for the glycoside hydrolyses were analyzed by applying the Michaelis-Menten model to obtain the rate of the reaction (kcat), the substrate affinity (KM), and the rate of the uncatalyzed reaction (knon) in aqueous buffer solution. The catalytic proficiency (kcat/(KM×knon), catalytic efficiency (kcat/KM), and acceleration of the reaction over the uncatalyzed background reaction (kcat/knon) were then calculated therefrom as described (Table 1, FIG. 11).
Activated microgel catalysts were prepared as described. [Sharma Biomacromolecules 2018] Typical stock solutions were as follows: Cu2bpdpo […] 2 mM, β-galactosidase as described [Sharma ACS Catal. 2018], 4-methylumbelliferyl α-D-galactopyranoside (α-9) 8-9 mM, and 4-methylumbelliferyl […] 3-4 mM. […]

[4] = broth microdilution, 37° C., 2.5×10^5 CFU/mL
[5] = ATCC25923, broth microdilution, 37° C., 2.5×10^5 CFU/mL, read-out: MIC S. aureus
[6] = 5 mM aqueous HEPES buffer, pH 7.00, 37° C.
[7] = 50 mM aqueous CAPS buffer, pH 10.50, 37° C.

Text for physchem: As the dissociation constant of CEA in water is to the best of our knowledge not reported, we used the structural similarity between CEA and propionic acid to predict the pKa value of CEA as 4.9.42 We then projected the pKa value of a linear CEA-polymer as 5.6, and estimated the pKa value of a crosslinked microgel with 20 mol % of CEA as 10.1 following the method by Fisher and Kunin as described.43 In short, the apparent pKa values of crosslinked microgels were estimated from the pKa(m=1) value of a linear polymer of the monomeric acid as eq 2 pKa,app=pKa(m=1)(2−m) (eq 2) where m is the mol fraction of the monomeric acid. The dissociation constant of the linear polymer is estimated graphically by extrapolation.

C=CC(=O)OCCC(=O)O [CEA monomer, carboxyethyl acrylate]
pKa (physchem): 4.9

O=C(N[C@H](CO)[C@H](O)c1ccc([N+](=O)[O-])cc1)C(Cl)Cl [Chloramphenicol]
MIC (E. coli (BL21 DE3); [4]): 1.29 ± 0.04 µg/mL (≈ 3.99 µM)
MIC (S. aureus (ATCC 25923); [5]): 6.11 ± 0.02 µg/mL (≈ 18.9 µM)

CCCCCCCCCCCCOS(=O)(=O)[O-].[Na+] [SDS, sodium dodecyl sulfate]
MIC (E. coli (BL21 DE3); [4]): 325 ± 11 µg/mL
MIC (S. aureus (ATCC 25923); [5]): 122 ± 1 µg/mL

CN[C@H](CC(C)C)C(=O)N[C@H]1C(=O)N[C@@H](CC(N)=O)C(=O)N[C@H]2C(=O)N[C@H]3C(=O)N[C@H](C(=O)N[C@H](C(=O)O)c4cc(O)cc(O)c4-c4cc3ccc4O)[C@H](O)c3ccc(c(Cl)c3)Oc3cc2cc(c3O[C@@H]2O[C@H](CO)[C@@H](O)[C@H](O)[C@H]2O[C@H]2C[C@](C)(N)[C@H](O)[C@H](C)O2)Oc2ccc(cc2Cl)[C@H]1O [Vancomycin]
MIC (E. coli (BL21 DE3)): 12.5 ± 0.2 µg/mL (≈ 8.63 µM)
MIC (S. aureus (ATCC 25923); ATCC25923, read-out: MIC S. aureus): 2.35 ± 0.14 µg/mL (≈ 1.62 µM)

Cc1ccc(CNC2=NC(CO)C(O)C(O)C2O)cc1 (stereo not drawn) [galactonoamidine 1]
stability against hydrolysis ([1]; 50 mM CAPS buffer, pH 10.50, 72° C.): instant hydrolysis
stability against hydrolysis ([1]; buffer strength lowered to 5 mM, pH 10.50, 72° C.): slowed the hydrolysis
stability against hydrolysis ([1]; pure deuterium oxide, 72° C., 3 h): stable

O=C[C@H](O)[C@@H](O)[C@@H](O)[C@H](O)CO [galactose]
pKa, gal [2]: 2.70

Benzalkonium chloride
MIC E. coli (E. coli (BL21 DE3); [4]): 117 ± 1 µg/mL
MIC S. aureus (S. aureus (ATCC 25923); [4]): 4.32 ± 0.01 µg/mL

lysozyme: Hen Egg-white lysozyme purchased from AMRESCO
inhibition of cell growth of E. coli on Müller-Hinton agar plates (B21 DE3 E. coli cells): inhibition of cell growth to a much smaller extend

β-galactosidase: β-galactosidase (bovine liver)
stabilization of enzyme-catalyzed hydrolysis relative to microgel ^Cu2LP1 ([3]; pH 7): 3.5×106 fold
catalytic proficiency relative to low molecular weight complex Cu2bpdpo ([3]; substrate 6 / β-9, pH 10.50, CAPS, 37° C.): about 3250 fold
Km [3, 6]: 110 ± 220 µM
kcat [3, 6]: 4.6 ± 0.1 min⁻¹
Km [3, 7]: 540 ± 60 µM
kcat [3, 7]: 2.95 ± 0.09 10^−3 min^−1
catalytic proficiency higher than that of amidine-templated microgel ^Cu2LP1 ([3]; β-9, alkaline solution, pH 10.50): about 57 fold
